According to EP1266900A1, “Carbamates of rapamycin” (Wyeth, priority 1992, dated 1994):
Where a name gives a salt, the structure may show the parent alone. Read-outs that look alike come from different tables or passages of the source.

Tests used:
[1] = test system: pinch skin graft; assay: pinch skin graft survival time, in vivo; set-up: species or system male C3H(H-2K) recipients; details: dose of 4 mg/kg, intraperitoneally or orally, untreated grafts usually rejected within 6-7 days
Protocol: (§1) Immunosuppressive activity for representative compounds of this invention was evaluated in an in vitro standard pharmacological test procedure to measure lymphocyte proliferation (LAF) and in an in vivo standard pharmacological test procedure which evaluated the survival time of a pinch skin graft.
Representative compounds of this invention were also evaluated in an in vivo test procedure designed to determine the survival time of pinch skin graft from male BAB/c donors transplanted to male C3H(H-2K) recipients. The method is adapted from Billingham R.E. and Medawar P.B., J. Exp. Biol. 28:385-402, (1951). Briefly, a pinch skin graft from the donor was grafted on the dorsum of the recipient as a allograft, and an isograft was used as control in the same region. The recipients were treated with either varying concentrations of test compounds intraperitoneally or orally. Rapamycin was used as a test control. Untreated recipients serve as rejection control. The graft was monitored daily and observations were recorded until the graft became dry and formed a blackened scab. This was considered as the rejection day. The mean graft survival time (number of days ± S.D.) of the drug treatment group was compared with the control group. […] Results are expressed as the mean survival time in days. Untreated (control) pinch skin grafts are usually rejected within 6-7 days. The results shown in Table 1 are based on a dose of 4 mg/kg of test compound. A survival time of 12.0 ± 1.7 days was obtained for rapamycin at 4 mg/kg.

[2] = test system: cells from the thymus of normal BALB/c mice; assay: comitogen-induced thymocyte proliferation procedure (LAF); format: cell-based; details: for IC50: read-out: LAF IC50; for LAF (ratio): ratio compared with rapamycin, greater than 1 = inhibited thymocyte proliferation to a greater extent than rapamycin
Protocol: as §1
The comitogen-induced thymocyte proliferation procedure (LAF) was used as an in vitro measure of the immunosuppressive effects of representative compounds. Briefly, cells from the thymus of normal BALB/c mice are cultured for 72 hours with PHA and IL-1 and pulsed with tritiated thymidine during the last six hours. Cells are cultured with and without various concentrations of rapamycin, cyclosporin A, or test compound. Cells are harvested and incorporated radioactivity is determined. Inhibition of lymphoproliferation is assessed as percent change in counts per minute from non-drug treated controls. For each compound evaluated, rapamycin was also evaluated for the purpose of comparison. An IC50 was obtained for each test compound as well as for rapamycin. […] A positive ratio indicates immunosuppressive activity. […] Calculation of the ratio is shown below. (()^3 H-control thymus cells -)/(()^3 H-control thymus cells -)(()^3 H-rapamycin-treated thymus cells)/(()^3 H-test compound-treated cells) [formula]

[3] = Mus musculus, Thymocyte, 72 h, thymocytes cultured for 72 hours with PHA and IL-1, tritiated thymidine incorporation

Compound	IC50 [2, 3] [nM]	LAF (ratio) [2]	Skin Graft (days ± SD), mean survival time [1] [days]	other results
CO[C@H]1C[C@@H]2CC[C@@H](C)[C@@](O)(O2)C(=O)C(=O)N2CCCC[C@H]2C(=O)O[C@H]([C@H](C)C[C@@H]2CC[C@@H](OC(=O)NCc3cccnc3)[C@H](OC)C2)CC(=O)[C@H](C)/C=C(\C)[C@@H](O)[C@@H](OC)C(=O)[C@H](C)C[C@H](C)/C=C/C=C/C=C/1C [Example 12, Rapamycin 42-ester with 3-pyridinylmethyl carbamic acid]	1.1	3.8	–	Skin Graft (days ± SD), mean survival time ([1]; 4 mg/kg): 9.80 ± 1.1 days
CO[C@H]1C[C@@H]2CC[C@@H](C)[C@@](O)(O2)C(=O)C(=O)N2CCCC[C@H]2C(=O)O[C@H]([C@H](C)C[C@@H]2CC[C@@H](OC(=O)NO)[C@H](OC)C2)CC(=O)[C@H](C)/C=C(\C)[C@@H](O)[C@@H](OC)C(=O)[C@H](C)C[C@H](C)/C=C/C=C/C=C/1C [Example 5, Rapamycin 42-ester with hydroxycarbamic acid]	2.1	1.19	–	–
CO[C@H]1C[C@@H]2CC[C@@H](C)[C@@](O)(O2)C(=O)C(=O)N2CCCC[C@H]2C(=O)O[C@H]([C@H](C)C[C@@H]2CC[C@@H](OC(=O)NCc3ccncc3)[C@H](OC)C2)CC(=O)[C@H](C)/C=C(\C)[C@@H](O)[C@@H](OC)C(=O)[C@H](C)C[C@H](C)/C=C/C=C/C=C/1C [Example 14, Rapamycin 42-ester with 4-pyridinylmethyl carbamic acid]	0.5	3.8	9.17 ± 1.7	–
CO[C@H]1C[C@@H]2CC[C@@H](C)[C@@](O)(O2)C(=O)C(=O)N2CCCC[C@H]2C(=O)O[C@H]([C@H](C)C[C@@H]2CC[C@@H](OC(=O)NCCc3ccccn3)[C@H](OC)C2)CC(=O)[C@H](C)/C=C(\C)[C@@H](O)[C@@H](OC)C(=O)[C@H](C)C[C@H](C)/C=C/C=C/C=C/1C [Example 7, Rapamycin 42-ester with 2-(pyridin-2-yl)-ethyl carbamic acid hydrochloride salt]	–	–	–	Skin Graft (days ± SD), mean survival time ([1]; hydrochloride salt, 4 mg/kg): 10.33 ± 0.5 days; LAF (ratio) ([2]; hydrochloride salt): 2.3; IC50 ([2]; thymocytes cultured for 72 hours with PHA and IL-1, tritiated thymidine incorporation, hydrochloride salt): 1.2 nM
CO[C@H]1C[C@@H]2CC[C@@H](C)[C@@](O)(O2)C(=O)C(=O)N2CCCC[C@H]2C(=O)O[C@H]([C@H](C)C[C@@H]2CC[C@@H](OC(=O)NCCc3ccccn3)[C@H](OC)C2)CC(=O)[C@H](C)/C=C(\C)[C@@H](O)[C@@H](OC)C(=O)[C@H](C)C[C@H](C)/C=C/C=C/C=C/1C [Example 8, Rapamycin 42-ester with 2-(pyridin-2-yl)ethylcarbamic acid methanesulfonate salt]	–	–	–	LAF (ratio) ([2]; methanesulfonate salt): 4.4; IC50 ([2]; thymocytes cultured for 72 hours with PHA and IL-1, tritiated thymidine incorporation, methanesulfonate salt): 0.2 nM
CO[C@H]1C[C@@H]2CC[C@@H](C)[C@@](O)(O2)C(=O)C(=O)N2CCCC[C@H]2C(=O)O[C@H]([C@H](C)C[C@@H]2CC[C@@H](O)[C@H](OC)C2)CC(=O)[C@H](C)/C=C(\C)[C@@H](O)[C@@H](OC)C(=O)[C@H](C)C[C@H](C)/C=C/C=C/C=C/1C [rapamycin, Rapamycin]	–	–	12.0 ± 1.7	IC50 ([2]; Mus musculus, Thymocyte, 72 h): 2.2 to 9.9 nM
CO[C@H]1C[C@@H]2CC[C@@H](C)[C@@](O)(O2)C(=O)C(=O)N2CCCC[C@H]2C(=O)O[C@H]([C@H](C)C[C@@H]2CC[C@@H](OC(=O)NCc3ccccn3)[C@H](OC)C2)CC(=O)[C@H](C)/C=C(\C)[C@@H](O)[C@@H](OC)C(=O)[C@H](C)C[C@H](C)/C=C/C=C/C=C/1C [Example 10, Rapamycin 42-ester with 2-pyridinylmethyl carbamic acid]	0.1	3.8	10.17 ± 1.0	–
CO[C@H]1C[C@@H]2CC[C@@H](C)[C@@](O)(O2)C(=O)C(=O)N2CCCC[C@H]2C(=O)O[C@H]([C@H](C)C[C@@H]2CC[C@@H](OC(N)=O)[C@H](OC)C2)CC(=O)[C@H](C)/C=C(\C)[C@@H](O)[C@@H](OC)C(=O)[C@H](C)C[C@H](C)/C=C/C=C/C=C/1C [Example 1, Rapamycin 42-ester with carbamic acid]	1.7	1.29	11.7 ± 0.5	–
Rapamycin 42-ester with 2-pyridinylmethyl carbamic acid hydrochloride salt [Example 11]	–	5.0	11.40 ± 0.9	IC50 ([2]; thymocytes cultured for 72 hours with PHA and IL-1, tritiated thymidine incorporation): 0.7 nM
CO[C@H]1C[C@@H]2CC[C@@H](C)[C@@](O)(O2)C(=O)C(=O)N2CCCC[C@H]2C(=O)O[C@H]([C@H](C)C[C@@H]2CC[C@@H](OC(=O)N3CCNCC3)[C@H](OC)C2)CC(=O)[C@H](C)/C=C(\C)[C@@H](O)[C@@H](OC)C(=O)[C@H](C)C[C@H](C)/C=C/C=C/C=C/1C [Example 28, Rapamycin 42-ester with piperazine-1-carboxylic acid]	4.2	1.1	–	–
CO[C@H]1C[C@@H]2CC[C@@H](C)[C@@](O)(O2)C(=O)C(=O)N2CCCC[C@H]2C(=O)O[C@H]([C@H](C)C[C@@H]2CC[C@@H](OC(=O)NCCN(C)C)[C@H](OC)C2)CC(=O)[C@H](C)/C=C(\C)[C@@H](O)[C@@H](OC)C(=O)[C@H](C)C[C@H](C)/C=C/C=C/C=C/1C [Example 3, Rapamycin 42-ester with 2-(dimethylamino)ethyl carbamic acid]	6.5	0.34	–	–
CO[C@H]1C[C@@H]2CC[C@@H](C)[C@@](O)(O2)C(=O)C(=O)N2CCCC[C@H]2C(=O)O[C@H]([C@H](C)C[C@@H]2CC[C@@H](OC(=O)N3CCOCC3)[C@H](OC)C2)CC(=O)[C@H](C)/C=C(\C)[C@@H](O)[C@@H](OC)C(=O)[C@H](C)C[C@H](C)/C=C/C=C/C=C/1C [Example 26, Rapamycin 42-ester with morpholine-4-carboxylic acid]	0.2	6.2	–	–
CO[C@H]1C[C@@H]2CC[C@@H](C)[C@@](O)(O2)C(=O)C(=O)N2CCCC[C@H]2C(=O)O[C@H]([C@H](C)C[C@@H]2CC[C@@H](OC(=O)N3CCN(C)CC3)[C@H](OC)C2)CC(=O)[C@H](C)/C=C(\C)[C@@H](O)[C@@H](OC)C(=O)[C@H](C)C[C@H](C)/C=C/C=C/C=C/1C [Example 27, Rapamycin 42-ester with 4-methylpiperazine-1-carboxylic acid]	1.2	1.2	–	–
CO[C@H]1C[C@@H]2CC[C@@H](C)[C@@](O)(O2)C(=O)C(=O)N2CCCC[C@H]2C(=O)O[C@H]([C@H](C)C[C@@H]2CC[C@@H](OC(=O)NCCCN(CCO)CCO)[C@H](OC)C2)CC(=O)[C@H](C)/C=C(\C)[C@@H](O)[C@@H](OC)C(=O)[C@H](C)C[C@H](C)/C=C/C=C/C=C/1C [Example 24, Rapamycin 42-ester with [3-[bis(2-hydroxyethyl)amino]propyl]carbamic acid]	40	0.1	–	–
CO[C@H]1C[C@@H]2CC[C@@H](C)[C@@](O)(O2)C(=O)C(=O)N2CCCC[C@H]2C(=O)O[C@H]([C@H](C)C[C@@H]2CC[C@@H](OC(=O)N3CCN(CCCO)CC3)[C@H](OC)C2)CC(=O)[C@H](C)/C=C(\C)[C@@H](O)[C@@H](OC)C(=O)[C@H](C)C[C@H](C)/C=C/C=C/C=C/1C [Example 23, Rapamycin 42-ester with 4-(3-hydroxypropyl)piperazine-1-carboxylic acid]	3.4	1.4	–	–
